Reference: patent US20210395262A1, “INHIBITORS OF HUMAN IMMUNODEFICIENCY VIRUS REPLICATION” (ViiV HEALTHCARE UK (NO.5) LIMITED, priority 2018, published 2021)
pEC50: −log10 of the molar value.

What was measured:
recombinant NL4-3 virus = assay: HIV cell culture assay (antiviral activity, luciferase readout in MT-2 cells); assay type: cell-based; details: Human immunodeficiency virus 1, NL43, MT2
Experimental: HIV cell culture assay—MT-2 cells, 293T cells and the proviral DNA clone of NL4-3 virus were obtained from the […] AIDS Research and Reference Reagent Program. MT-2 cells were propagated in RPMI 1640 media supplemented with 10% heat inactivated fetal bovine serum (FBS), […] penicillin G and up to 100 units/mL streptomycin. The 293T cells were propagated in DMEM media supplemented with 10% heat inactivated FBS, […] penicillin G and […] streptomycin. A recombinant NL4-3 proviral clone, in which a section of the nef gene was replaced with the Renilla luciferase gene, was used to make the reference virus used in these studies. The recombinant virus was prepared through transfection of the recombinant NL4-3 proviral clone into 293T cells using Transit-293 Transfection Reagent from Mirus Bio LLC (Madison, Wis.). Supernatent was harvested after 2-3 days and the amount of virus present was titered in MT-2 cells using luciferase enzyme activity as a marker by measuring luciferase enzyme activity. Luciferase was quantitated using the EnduRen Live Cell Substrate from Promega (Madison, Wis.). Antiviral activities of compounds toward the recombinant virus were quantified by measuring luciferase activity in MT-2 cells infected for 4-5 days with the recombinant virus in the presence of serial dilutions of the compound.
The 50% effective concentration (EC50) was calculated by using the exponential form of the median effect equation where (Fa)=1/[1+(ED50/drug conc.)m] (Johnson V A, Byington R T. Infectivity Assay. In Techniques in HIV Research. ed. Aldovini A, Walker B D. 71-76. New York: Stockton Press. 1990). The 50% inhibitory concentration (EC50) was calculated by using the exponential form of the median effect equation where percent inhibition=1/[1+(EC50/drug concentration)m], where m is a parameter that reflects the slope of the concentration-response curve.

[1] = Compound cytotoxicity, XTT-based colorimetric assay; assay type: cell-based; details: human; uninfected MT2 cells, day 4, XTT; read-out: CC50
Experimental: Compound cytotoxicity and the corresponding CC50 values were determined using the same protocol as described in the antiviral assay except that uninfected cells were used. Cytotoxicity was assessed on day 4 in uninfected MT2 cells by using a XTT (2,3-bis[2-Methoxy-4-nitro-5-sulfophenyl]-2H-tetrazolium-5-carboxyanilide inner salt)-based colorimetric assay (Sigma-Aldrich, St Louis, Mo.).

Row | SMILES | pEC50 (recombinant NL4-3 virus) | CC50 at 4 days [1]
1 | Cn1nc(NS(C)(=O)=O)c2c(Cl)ccc(-n3c([C@H](Cc4cc(F)cc(F)c4)NC(=O)Cn4nc(C(F)F)c5c4C(F)(F)[C@@H]4C[C@H]54)nc4cc(N5CCC(C)(C)CC5)ccc4c3=O)c21 (atropisomer, axis not shown; (P)) [Example 1, N—((S)-1-((3P)-3-(4-chloro-1-methyl-3-(methylsulfonamido)-1H-indazol-7-yl)-7-(4,4-dimethylpiperidin-1-yl)-4-oxo-3,4-dihydroquinazolin-2-yl)-2-(3,5-difluorophenyl)ethyl)-2-((3bS,4aR)-3-(difluoromethyl)-5,5-difluoro-3b,4,4a,5-tetrahydro-1H-cyclopropa[3,4]cyclopenta[1,2-c]pyrazol-1-yl)acetamide] | 9.10 | > 500 nM
2 | Cn1nc(NS(C)(=O)=O)c2c(Cl)ccc(-n3c([C@H](Cc4cc(F)cc(F)c4)NC(=O)Cn4nc(C(F)F)c5c4C(F)(F)[C@@H]4C[C@H]54)nc4cc(N5CCCCCC5)ccc4c3=O)c21 (atropisomer, axis not shown; (P)) [Example 2, N—((S)-1-(7-(azepan-1-yl)-(3P)-3-(4-chloro-1-methyl-3-(methylsulfonamido)-1H-indazol-7-yl)-4-oxo-3,4-dihydroquinazolin-2-yl)-2-(3,5-difluorophenyl)ethyl)-2-((3bS,4aR)-3-(difluoromethyl)-5,5-difluoro-3b,4,4a,5-tetrahydro-1H-cyclopropa[3,4]cyclopenta[1,2-c]pyrazol-1-yl)acetamide] | 9.61 | > 500 nM
3 | COC[C@@H]1CCCN1c1ccc2c(=O)n(-c3ccc(Cl)c4c(NS(C)(=O)=O)nn(C)c34)c([C@H](Cc3cc(F)cc(F)c3)NC(=O)Cn3nc(C(F)F)c4c3C(F)(F)[C@@H]3C[C@H]43)nc2c1 (atropisomer, axis not shown; (P)) [Example 3, N—((S)-1-((3P)-3-(4-chloro-1-methyl-3-(methylsulfonamido)-1H-indazol-7-yl)-7-((S)-2-(methoxymethyl)pyrrolidin-1-yl)-4-oxo-3,4-dihydroquinazolin-2-yl)-2-(3,5-difluorophenyl)ethyl)-2-((3bS,4aR)-3-(difluoromethyl)-5,5-difluoro-3b,4,4a,5-tetrahydro-1H-cyclopropa[3,4]cyclopenta[1,2-c]pyrazol-1-yl)acetamide] | 9.76 | > 500 nM
4 | Cn1nc(NS(C)(=O)=O)c2c(Cl)ccc(-n3c([C@H](Cc4cc(F)cc(F)c4)NC(=O)Cn4nc(C(F)F)c5c4C(F)(F)[C@@H]4C[C@H]54)nc4cc(N5CCOC(C)(C)C5)ccc4c3=O)c21 (atropisomer, axis not shown; (P)) [Example 4, N—((S)-1-((3P)-3-(4-chloro-1-methyl-3-(methylsulfonamido)-1H-indazol-7-yl)-7-(2,2-dimethylmorpholino)-4-oxo-3,4-dihydroquinazolin-2-yl)-2-(3,5-difluorophenyl)ethyl)-2-((3bS,4aR)-3-(difluoromethyl)-5,5-difluoro-3b,4,4a,5-tetrahydro-1H-cyclopropa[3,4]cyclopenta[1,2-c]pyrazol-1-yl)acetamide] | 10.20 | > 500 nM
5 | CO[C@@H]1CCN(c2ccc3c(=O)n(-c4ccc(Cl)c5c(NS(C)(=O)=O)nn(C)c45)c([C@H](Cc4cc(F)cc(F)c4)NC(=O)Cn4nc(C(F)F)c5c4C(F)(F)[C@@H]4C[C@H]54)nc3c2)C1 (atropisomer, axis not shown; (P)) [Example 5, N—((S)-1-((3P)-3-(4-chloro-1-methyl-3-(methylsulfonamido)-1H-indazol-7-yl)-7-((R)-3-methoxypyrrolidin-1-yl)-4-oxo-3,4-dihydroquinazolin-2-yl)-2-(3,5-difluorophenyl)ethyl)-2-((3bS,4aR)-3-(difluoromethyl)-5,5-difluoro-3b,4,4a,5-tetrahydro-1H-cyclopropa[3,4]cyclopenta[1,2-c]pyrazol-1-yl)acetamide] | 10.30 | > 500 nM
6 | CS(=O)(=O)Nc1nn(CC(F)F)c2c(-n3c([C@H](Cc4cc(F)cc(F)c4)NC(=O)Cn4nc(C(F)F)c5c4C(F)(F)[C@@H]4C[C@H]54)nc4cc(N5CCOCC5)ccc4c3=O)ccc(Cl)c12 (atropisomer, axis not shown; (P)) [Example 7, N—((S)-1-((3P)-3-(4-chloro-1-(2,2-difluoroethyl)-3-(methylsulfonamido)-1H-indazol-7-yl)-7-morpholino-4-oxo-3,4-dihydroquinazolin-2-yl)-2-(3,5-difluorophenyl)ethyl)-2-((3bS,4aR)-3-(difluoromethyl)-5,5-difluoro-3b,4,4a,5-tetrahydro-1H-cyclopropa[3,4]cyclopenta[1,2-c]pyrazol-1-yl)acetamide] | 10.07 | > 500 nM
7 | O=C(Cn1nc(C(F)F)c2c1C(F)(F)[C@@H]1C[C@H]21)N[C@@H](Cc1cc(F)cc(F)c1)c1nc2cc(N3CCOCC3)ccc2c(=O)n1-c1ccc(Cl)c2c(NS(=O)(=O)C3CC3)nn(CC(F)F)c12 (atropisomer, axis not shown; (P)) [Example 9, N—((S)-1-((3P)-3-(4-chloro-3-(cyclopropanesulfonamido)-1-(2,2-difluoroethyl)-1H-indazol-7-yl)-7-morpholino-4-oxo-3,4-dihydroquinazolin-2-yl)-2-(3,5-difluorophenyl)ethyl)-2-((3bS,4aR)-3-(difluoromethyl)-5,5-difluoro-3b,4,4a,5-tetrahydro-1H-cyclopropa[3,4]cyclopenta[1,2-c]pyrazol-1-yl)acetamide] | 10.07 | > 500 nM
8 | C[C@@H]1CN(c2ccc3c(=O)n(-c4ccc(Cl)c5c(NS(=O)(=O)C6CC6)nn(CC(F)F)c45)c([C@H](Cc4cc(F)cc(F)c4)NC(=O)Cn4nc(C(F)F)c5c4C(F)(F)[C@@H]4C[C@H]54)nc3c2)C[C@H](C)O1 (atropisomer, axis not shown; (P)) [Example 10, N—((S)-1-((3P)-3-(4-chloro-3-(cyclopropanesulfonamido)-1-(2,2-difluoroethyl)-1H-indazol-7-yl)-7-((2S,6R)-2,6-dimethylmorpholino)-4-oxo-3,4-dihydroquinazolin-2-yl)-2-(3,5-difluorophenyl)ethyl)-2-((3bS,4aR)-3-(difluoromethyl)-5,5-difluoro-3b,4,4a,5-tetrahydro-1H-cyclopropa[3,4]cyclopenta[1,2-c]pyrazol-1-yl)acetamide] | 10.14 | > 500 nM
9 | CN1CCN(c2ccc3c(=O)n(-c4ccc(Cl)c5c(NS(C)(=O)=O)nn(C)c45)c([C@H](Cc4cc(F)cc(F)c4)NC(=O)Cn4nc(C(F)F)c5c4C(F)(F)[C@@H]4C[C@H]54)nc3c2)CC1 (atropisomer, axis not shown; (P)) [Example 11, N—((S)-1-((3P)-3-(4-chloro-1-methyl-3-(methylsulfonamido)-1H-indazol-7-yl)-7-(4-methylpiperazin-1-yl)-4-oxo-3,4-dihydroquinazolin-2-yl)-2-(3,5-difluorophenyl)ethyl)-2-((3bS,4aR)-3-(difluoromethyl)-5,5-difluoro-3b,4,4a,5-tetrahydro-1H-cyclopropa[3,4]cyclopenta[1,2-c]pyrazol-1-yl)acetamide] | 9.93 | > 10000 nM
10 | Cn1nc(NS(C)(=O)=O)c2c(Cl)ccc(-n3c([C@H](Cc4cc(F)cc(F)c4)NC(=O)Cn4nc(C(F)F)c5c4C(F)(F)[C@@H]4C[C@H]54)nc4cc(N5CCOCC5)ccc4c3=O)c21 (atropisomer, axis not shown; (P)) [Example 12, N—((S)-1-((3P)-3-(4-chloro-1-methyl-3-(methylsulfonamido)-1H-indazol-7-yl)-7-morpholino-4-oxo-3,4-dihydroquinazolin-2-yl)-2-(3,5-difluorophenyl)ethyl)-2-((3bS,4aR)-3-(difluoromethyl)-5,5-difluoro-3b,4,4a,5-tetrahydro-1H-cyclopropa[3,4]cyclopenta[1,2-c]pyrazol-1-yl)acetamide] | 10.46 | > 1000 nM
11 | Cn1nc(NS(C)(=O)=O)c2c(Cl)ccc(-n3c([C@H](Cc4cc(F)cc(F)c4)NC(=O)Cn4nc(C(F)F)c5c4C(F)(F)[C@@H]4C[C@H]54)nc4cc(N5CCS(=O)(=O)CC5)ccc4c3=O)c21 (atropisomer, axis not shown; (P)) [Example 13, N—((S)-1-((3P)-3-(4-chloro-1-methyl-3-(methylsulfonamido)-1H-indazol-7-yl)-7-(1,1-dioxidothiomorpholino)-4-oxo-3,4-dihydroquinazolin-2-yl)-2-(3,5-difluorophenyl)ethyl)-2-((3bS,4aR)-3-(difluoromethyl)-5,5-difluoro-3b,4,4a,5-tetrahydro-1H-cyclopropa[3,4]cyclopenta[1,2-c]pyrazol-1-yl)acetamide] | 9.33 | > 10000 nM
